Results taken from US8895733B2 (Novartis AG, priority 2010, dated 2014).

What follows are compounds tested against T1, Nav 1.7 (Homo sapiens, UniProt Q15858) (assay: Whole-cell voltage clamp electrophysiology, automated patch clamp (marker c in Table of Examples)). Settings: marker c: Automated patch clamp data; read-out: Nav 1.7 activity.
T1 construct: expressed in transfected cells
T1 sequence (Q15858 whole entry): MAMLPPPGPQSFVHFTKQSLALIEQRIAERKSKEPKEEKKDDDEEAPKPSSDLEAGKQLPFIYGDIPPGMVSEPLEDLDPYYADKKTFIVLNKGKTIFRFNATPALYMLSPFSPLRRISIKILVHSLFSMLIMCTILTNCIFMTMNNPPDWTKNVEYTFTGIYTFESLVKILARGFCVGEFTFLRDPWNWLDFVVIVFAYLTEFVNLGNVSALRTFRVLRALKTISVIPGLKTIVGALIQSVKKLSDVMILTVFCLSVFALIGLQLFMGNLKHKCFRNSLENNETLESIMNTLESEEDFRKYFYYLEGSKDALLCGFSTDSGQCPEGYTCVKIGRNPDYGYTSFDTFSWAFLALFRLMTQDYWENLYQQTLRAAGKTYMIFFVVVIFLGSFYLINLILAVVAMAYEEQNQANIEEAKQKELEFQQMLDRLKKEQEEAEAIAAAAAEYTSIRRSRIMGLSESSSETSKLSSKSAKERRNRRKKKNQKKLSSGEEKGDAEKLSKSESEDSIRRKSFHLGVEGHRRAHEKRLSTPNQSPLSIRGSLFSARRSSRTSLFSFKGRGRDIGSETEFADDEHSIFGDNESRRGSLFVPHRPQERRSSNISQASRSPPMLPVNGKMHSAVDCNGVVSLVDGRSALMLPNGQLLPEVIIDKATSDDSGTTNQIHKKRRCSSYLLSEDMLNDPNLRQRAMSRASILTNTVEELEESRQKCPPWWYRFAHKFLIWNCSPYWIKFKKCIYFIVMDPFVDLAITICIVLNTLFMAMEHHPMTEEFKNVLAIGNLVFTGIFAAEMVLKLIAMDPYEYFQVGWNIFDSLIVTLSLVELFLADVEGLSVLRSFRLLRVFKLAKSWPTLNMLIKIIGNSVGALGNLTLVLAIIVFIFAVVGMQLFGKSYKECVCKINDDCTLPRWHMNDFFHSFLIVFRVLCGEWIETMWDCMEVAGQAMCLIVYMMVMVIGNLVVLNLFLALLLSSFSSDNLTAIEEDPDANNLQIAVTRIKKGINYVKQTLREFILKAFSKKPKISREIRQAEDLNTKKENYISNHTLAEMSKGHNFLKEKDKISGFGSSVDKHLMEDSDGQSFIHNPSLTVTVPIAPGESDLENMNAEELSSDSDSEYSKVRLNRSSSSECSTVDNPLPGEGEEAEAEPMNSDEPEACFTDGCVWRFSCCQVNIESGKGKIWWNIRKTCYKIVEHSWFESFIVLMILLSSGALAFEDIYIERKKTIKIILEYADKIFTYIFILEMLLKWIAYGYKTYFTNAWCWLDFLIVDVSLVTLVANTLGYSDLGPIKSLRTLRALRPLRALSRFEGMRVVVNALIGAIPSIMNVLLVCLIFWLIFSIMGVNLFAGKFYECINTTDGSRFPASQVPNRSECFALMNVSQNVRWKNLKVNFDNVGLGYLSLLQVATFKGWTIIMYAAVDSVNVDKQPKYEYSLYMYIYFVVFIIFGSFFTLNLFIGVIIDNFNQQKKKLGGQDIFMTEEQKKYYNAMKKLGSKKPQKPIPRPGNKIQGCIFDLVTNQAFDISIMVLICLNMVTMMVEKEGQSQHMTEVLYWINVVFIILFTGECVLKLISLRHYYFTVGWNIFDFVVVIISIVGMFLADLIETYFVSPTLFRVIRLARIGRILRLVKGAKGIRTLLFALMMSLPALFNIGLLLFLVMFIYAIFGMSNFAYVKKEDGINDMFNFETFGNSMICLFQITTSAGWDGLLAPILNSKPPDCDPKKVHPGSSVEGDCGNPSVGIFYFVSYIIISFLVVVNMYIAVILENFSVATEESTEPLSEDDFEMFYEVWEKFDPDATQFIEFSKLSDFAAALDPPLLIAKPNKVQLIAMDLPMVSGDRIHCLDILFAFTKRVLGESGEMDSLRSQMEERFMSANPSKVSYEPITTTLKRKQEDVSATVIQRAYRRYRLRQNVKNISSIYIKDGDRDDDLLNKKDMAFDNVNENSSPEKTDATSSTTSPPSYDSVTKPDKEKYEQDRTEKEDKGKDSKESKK
Type: cell-based
Excerpt: a.IonWork Quattro data, b=Manual patch clamp data, c=Automated patch clamp data M=Method
Whole-Cell Voltage Clamp Electrophysiology Assay
Patch-clamp electrophysiology is considered the gold standard technique for investigation of ion channel function and pharmacology. Using this method, sodium channel currents can be measured in cells, which stably (or transiently) express the sodium channel subtype of interest. Application of compounds during such experiments provides a functional measure of the activity and potency of compounds affecting the ion channel of interest.
Electrophysiological studies can be performed using automated or manual patch-clamp techniques. Automated patch-clamp instruments suitable for this work include the Ion Works HT (MDS), Ion Works Quattro (MDS), PatchLiner (Nanion technologies), Port-A-Patch (Nanion technologies), QPatch (Sophion) or any other suitable platform.
For recording in automated patch-clamp instruments, cells expressing the voltage-gated sodium channel subtype of interest are dispensed in appropriate chips (plates with more than one recording chambers each containing one or more apertures to generate whole-cell patches), as provided by the manufacturer. Typically, the whole-cell perforated patch configuration is used for probing the pharmacology of compounds in automated patch-clamp electrophysiology on sodium channels. Extracellular and intracellular buffers for such experiments are composed according to the literature, or according to the instructions provided by the manufacturer of the instruments. Test solutions, which contain the compounds to be tested, are applied to the cells expressing the sodium channel of interest by a pipetting system, typically integrated into the robots.
A suitable voltage stimulus protocol is used to activate voltage-gated sodium channel proteins of interest. A typical stimulus protocol may consist of sweeps of sequential voltage pulses starting from a holding potential (i.e. −65 mV), to a more positive and depolarising test pulse potential (i.e. −10 mV) and finally to a more negative and hyperpolarising potential (i.e. −100 mV). According to the biophysics of the voltage-gated ion channel of interest and interest in channel configuration the voltages and durations of the pulses as well as the overall frequency of sweeps applied might vary. Accordingly, a stimulus protocol was designed to assess compounds due to their potential to block NaV1.7 channels primarily in inactivated state. Selectivity over other voltage-gated sodium channel members was assessed by protocols that reflect the native function of the channels (i.e. heart rate or firing of neurons).
`Cc1ccc(-c2nc(-c3nc(N)nc(N(C)c4ccccc4)n3)no2)s1` [Example 129, N-Methyl-6-[5-(5-methyl-thiophen-2-yl)-[1,2,4]oxadiazol-3-yl]-N-phenyl-[1,3,5]triazine-2,4-diamine] gave an IC50 of 2540 nM.
`CN(c1ccccc1)c1nc(N)nc(-c2noc(N3CCCC3)n2)n1` [Example 131, N-Methyl-N-phenyl-6-(5-pyrrolidin-1-yl-[1,2,4]oxadiazol-3-yl)-[1,3,5]triazine-2,4-diamine] gave an IC50 of 5110 nM.
Work on `CN(c1nc(N)nc(-c2noc(-c3ccc(OCC4CC4)nc3)n2)n1)c1ccccc1F` [Example 134, 6-{5-[6-(cyclopropylmethoxy)pyridin-3-yl]-1,2,4-oxadiazol-3-yl}-2-N-(2-fluorophenyl)-2-N-methyl-1,3,5-triazine-2,4-diamine] yielded an IC50 of 67 nM.
With `Nc1nc(Nc2cccc(F)c2)nc(-c2noc(-c3ccc(OCC4CC4)nc3)n2)n1` [Example 136, 6-{5-[6-(cyclopropylmethoxy)pyridin-3-yl]-1,2,4-oxadiazol-3-yl}-2-N-(3-fluorophenyl)-1,3,5-triazine-2,4-diamine] the IC50 was 65 nM.
For `CN(c1ccccc1)c1nc(N)nc(-c2noc(C(=O)N3CC(Oc4ccc(F)cc4)C3)n2)n1` [Example 137], the IC50 was 564 nM.
`Nc1nc(Nc2ccccc2F)nc(-c2noc(-c3ccc(OCC4CC4)nc3)n2)n1` [Example 138, 6-{5-[6-(cyclopropylmethoxy)pyridin-3-yl]-1,2,4-oxadiazol-3-yl}-2-N-(2-fluorophenyl)-1,3,5-thazine-2,4-diamine] gave an IC50 of 106 nM.
Compound `Nc1nc(Nc2cccc(F)c2F)nc(-c2noc(-c3ccc(OCC4CC4)nc3)n2)n1` [Example 139, 6-{5-[6-(cyclopropylmethoxy)pyridin-3-yl]-1,2,4-oxadiazol-3-yl}-2-N-(2,3-difluorophenyl)-1,3,5-triazine-2,4-diamine] has an IC50 of 144 nM.
`CN(c1nc(N)nc(-c2noc(-c3ccc(OCC4CC4)nc3)n2)n1)c1cccc(F)c1F` [Example 140, 6-{5-[6-(cyclopropylmethoxy)pyridin-3-yl]-1,2,4-oxadiazol-3-yl}-2-N-(2,3-difluorophenyl)-2-N-methyl-1,3,5-triazine-2,4-diamine] gave an IC50 of 85 nM.
`CN(c1ccccc1)c1nc(N)nc(-c2noc(-c3ccc(OC4CCOC4)nc3)n2)n1` (stereo not drawn) [Example 141, 2-N-methyl-6-{5-[6-(oxolan-3-yloxy)pyridin-3-yl]-1,2,4-oxadiazol-3-yl}-2-N-phenyl-1,3,5-triazine-2,4-diamine] showed an IC50 of 261 nM.
With `CN(c1ccccc1)c1nc(N)nc(-c2noc(-c3ccc(C(F)(F)F)nc3Cl)n2)n1` [Example 142, 6-{5-[2-chloro-6-(trifluoromethyl)pyridin-3-yl]-1,2,4-oxadiazol-3-yl}-2-N-methyl-2-N-phenyl-1,3,5-triazine-2,4-diamine] the IC50 was 5820 nM.
For `COCCOCc1ccc(-c2nc(-c3nc(N)nc(N(C)c4ccccc4)n3)no2)cn1` [Example 143, 6-{5-[6-(2-Methoxy-ethoxymethyl)-pyridin-3-yl]-[1,2,4]oxadiazol-3-yl}-N-methyl-N-phenyl-[1,3,5]triazine-2,4-diamine], the IC50 was 3570 nM.
In the case of `CN(c1ccccc1)c1nc(N)nc(-c2noc(-c3ccc(COC4CCOC4)nc3)n2)n1` (stereo not drawn) [Example 144, N-Methyl-N-phenyl-6-{5-[6-(tetrahydro-furan-3-yloxymethyl)-pyridin-3-yl]-[1,2,4]oxadiazol-3-yl}-[1,3,5]triazine-2,4-diamine], the IC50 is reported as 1720 nM.
With `CN(c1ccccc1)c1nc(N)nc(-c2noc(-c3ccc(OCC4CC4)nc3)n2)n1` [Example 146, 6-{5-[6-(cyclopropylmethoxy)pyridin-3-yl]-1,2,4-oxadiazol-3-yl}-2-N-methyl-2-N-phenyl-1,3,5-triazine-2,4-diamine] the IC50 was 188 nM.
With `CCN(c1ccccc1)c1nc(N)nc(-c2noc(-c3ccc(OCC(F)(F)F)nc3)n2)n1` [Example 147, 2-N-ethyl-2-N-phenyl-6-{5-[6-(2,2,2-trifluoroethoxy)pyridin-3-yl]-1,2,4-oxadiazol-3-yl}-1,3,5-triazine-2,4-diamine] the IC50 was 42 nM.
`CCOc1ccc(-c2nc(-c3nc(N)nc(N(C)c4ccccc4)n3)no2)cn1` [Example 148, 6-[5-(6-ethoxypyridin-3-yl)-1,2,4-oxadiazol-3-yl]-2-N-methyl-2-N-phenyl-1,3,5-triazine-2,4-diamine] gave an IC50 of 323 nM.
Work on `CC(C)Oc1ccc(-c2nc(-c3nc(N)nc(N(C)c4ccccc4)n3)no2)cn1` [Example 149, 2-N-methyl-2-N-phenyl-6-{5-[6-(propan-2-yloxy)pyridin-3-yl]-1,2,4-oxadiazol-3-yl}-1,3,5-triazine-2,4-diamine] yielded an IC50 of 142 nM.
With `Nc1nc(-c2noc(-c3ccc(OCC(F)(F)F)nc3)n2)nc(N(CC(F)(F)F)c2ccccc2)n1` [Example 150, 2-N-phenyl-6-{5-[6-(2,2,2-trifluoroethoxy)pyridin-3-yl]-1,2,4-oxadiazol-3-yl}-2-N-(2,2,2-trifluoroethyl)-1,3,5-triazine-2,4-diamine] the IC50 was 222 nM.
`FC(F)(F)CNc1nc(Nc2ccccc2)nc(-c2noc(-c3ccc(OCC(F)(F)F)nc3)n2)n1` [Example 151, 2-N-phenyl-6-{5-[6-(2,2,2-trifluoroethoxy)pyridin-3-yl]-1,2,4-oxadiazol-3-yl}-4-N-(2,2,2-trifluoroethyl)-1,3,5-triazine-2,4-diamine] gave an IC50 of 1480 nM.
With `Cc1cccnc1-c1nc(-c2nc(N)nc(N(C)c3ccccc3)n2)no1` [Example 152, 2-N-methyl-6-[5-(3-methylpyridin-2-yl)-1,2,4-oxadiazol-3-yl]-2-N-phenyl-1,3,5-triazine-2,4-diamine] the IC50 was 1620 nM.
With `CN(c1ccccc1)c1nc(N)nc(-c2noc(-c3ccc(F)cn3)n2)n1` [Example 153, 6-[5-(5-fluoropyridin-2-yl)-1,2,4-oxadiazol-3-yl]-2-N-methyl-2-N-phenyl-1,3,5-triazine-2,4-diamine] the IC50 was 1390 nM.
In the case of `Cc1cc(C)c(-c2nc(-c3nc(N)nc(N(C)c4ccccc4)n3)no2)cn1` [Example 154, 6-[5-(4,6-dimethylpyridin-3-yl)-1,2,4-oxadiazol-3-yl]-2-N-methyl-2-N-phenyl-1,3,5-triazine-2,4-diamine], the IC50 is reported as 5060 nM.
`CN(c1ccccc1)c1nc(N)nc(-c2noc(-c3cccc(OCC(F)(F)F)n3)n2)n1` [Example 155, 2-N-methyl-2-N-phenyl-6-{5-[6-(2,2,2-trifluoroethoxy)pyridin-2-yl]-1,2,4-oxadiazol-3-yl}-1,3,5-triazine-2,4-diamine] showed an IC50 of 4570 nM.
With `COCCNc1nc(Nc2ccccc2)nc(-c2noc(-c3ccc(OCC(F)(F)F)nc3)n2)n1` [Example 157, 2-N-(2-methoxyethyl)-4-N-phenyl-6-{5-[6-(2,2,2-trifluoroethoxy)pyridin-3-yl]-1,2,4-oxadiazol-3-yl}-1,3,5-triazine-2,4-diamine] the IC50 was 477 nM.
Work on `CN(c1ccccc1)c1nc(N)nc(-c2noc(-c3ccc(F)nc3)n2)n1` [Example 158, 6-[5-(6-fluoropyridin-3-yl)-1,2,4-oxadiazol-3-yl]-2-N-methyl-2-N-phenyl-1,3,5-triazine-2,4-diamine] yielded an IC50 of 3310 nM.
Work on `CN(c1ccccc1)c1nc(N)nc(-c2noc(C3CCN(C(=O)C(F)(F)F)CC3)n2)n1` [Example 159, 1-[4-(3-{4-Amino-6-[methyl(phenyl)amino]-1,3,5-triazin-2-yl}-1,2,4-oxadiazol-5-yl)piperidin-1-yl]-2,2,2-trifluoroethan-1-one] yielded an IC50 of 8670 nM.
Compound `CN(c1ccccc1)c1nc(N)nc(-c2noc(C3CCN(S(C)(=O)=O)CC3)n2)n1` [Example 160, 6-[5-(1-methanesulfonylpiperidin-4-yl)-1,2,4-oxadiazol-3-yl]-2-N-methyl-2-N-phenyl-1,3,5-triazine-2,4-diamine] has an IC50 of 2730 nM.
Work on `CC(C)C(=O)N1CCC(c2nc(-c3nc(N)nc(N(C)c4ccccc4)n3)no2)CC1` [Example 161, 1-[4-(3-{4-Amino-6-[methyl(phenyl)amino]-1,3,5-triazin-2-yl}-1,2,4-oxadiazol-5-yl)piperidin-1-yl]-2-methylpropan-1-one] yielded an IC50 of 8500 nM.
Work on `CC(=O)N1CCC(c2nc(-c3nc(N)nc(N(C)c4ccccc4)n3)no2)CC1` [Example 162, 1-[4-(3-{4-amino-6-[methyl(phenyl)amino]-1,3,5-triazin-2-yl}-1,2,4-oxadiazol-5-yl)piperidin-1-yl]ethan-1-one] yielded an IC50 of 8980 nM.
`CN(c1ccccc1)c1nc(N)nc(-c2noc(C3CCN(CCC(F)(F)F)CC3)n2)n1` [Example 163, 2-N-methyl-2-N-phenyl-6-{5-[1-(3,3,3-trifluoropropyl)piperidin-4-yl]-1,2,4-oxadiazol-3-yl}-1,3,5-triazine-2,4-diamine] was tested, and the IC50 was 559 nM.
In the case of `CN(c1ccccc1)c1nc(N)nc(-c2noc(C3CCN(C(=O)CC(F)(F)F)CC3)n2)n1` [Example 164, 1-[4-(3-{4-amino-6-[methyl(phenyl)amino]-1,3,5-triazin-2-yl}-1,2,4-oxadiazol-5-yl)piperidin-1-yl]-3,3,3-trifluoropropan-1-one], the IC50 is reported as 9040 nM.
